In patent US6534546B1 (Chugai Seiyaku Kabushiki Kaisha, priority 1994, dated 2003):
Counter-ions that a name gives are not always drawn. Like-named read-outs stand apart in the source and are kept apart here.

How the values were obtained:
[1] = biological target: iNOS (Type 2) (Rattus norvegicus, UniProt Q06518); experiment: biochemical; format: biochemical
[2] = biological target: T1, E-cNOS (Type 3) (Bos taurus, UniProt P29473); experiment: biochemical
T1 construct: the resulting supernatant was used as the crude enzyme sample of E-cNOS; endogenous in cells; host or cells: CPAE (cow pulmonary arterial endothelium cells), 1% Triton X-100 extract, 100,000 x g supernatant
Procedure: The crude enzyme sample of E-cNOS was prepared by the following procedure. A cow pulmonary arterial endothielium cell (CPAE) was cultured in a MEM medium containing 20% FBS. […] A suitable amount of Ca- and Mg-free phosphate buffer (pH 7.4) was added to the precipitating cells and they were centrifuged at 1,000 rpm for 10 min. The same step was repeated to wash the cells which, upon addition of 50 mM Tris-HCl (pH 7.4) containing 1% Triton X-100 and 1 mM DTT, were left to stand in ice for 1 h. Subsequently, the mixture was homogenized for 3 min and kept in ice for 30 min with occasional stirring. Finally, the mixture was centrifuged at 100,000×g for 60 min and the resulting supernatant was used as the crude enzyme sample of E-cNOS.
The reaction was started by addition of L-[^3H]arginine and following incubation at 37° C. for 10 min, the reaction was terminated by addition of 2 ml of 50 mM Tris-HCl (pH 5.5) containing 1 mM EDTA and placing the mixture on ice. The reaction solution was passed through a cation-exchange resin column (Dowex AG50WX-8, Na^+ form, 3.2 ml) to separate the reaction product L-[^3H]citrulline from the unreacted residual substrate L-[^3H]arginine. The eluate was combined with another eluate resulting from the passage of a given amount of distilled water through the column and put into a minivial for recovery of L-[^3H]citrulline. Thereafter, a scintillation fluid was added and the contained radioactivity was measured with a liquid scintillation counter to determine the amount of L-[^3H]citrulline.
The activity of N-cNOS or E-cNOS was determined by subtracting the activity as detected in the absence of CaCl2 and calmodulin from the activity as detected in the presence of CaCl2 and calmodulin. […] The protein concentration of each crude enzyme sample was determined with a micro-assay kit of Biorad Co. Each experiment was conducted in a duplicate.

[3] = mean of one to four independent experiments, crude enzyme, 100 nM L-[3H]arginine, without CaCl2 and calmodulin, read-out: IC50 value, iNOS (Type 2)
[4] = mean of one to four independent experiments, crude enzyme, 100 nM L-[3H]arginine, read-out: IC50 value, E-cNOS (Type 3)
[5] = conclusion from Tables 49, 50 and 51
[6] = mean of one to four independent experiments, LPS-treated rat lung crude enzyme, read-out: IC50 value, iNOS (Type 2)
[7] = mean of one to four independent experiments, CPAE cell crude enzyme, read-out: IC50 value, E-cNOS (Type 3)

iNOS (Type 2), sequence (Q06518 whole entry, looked up): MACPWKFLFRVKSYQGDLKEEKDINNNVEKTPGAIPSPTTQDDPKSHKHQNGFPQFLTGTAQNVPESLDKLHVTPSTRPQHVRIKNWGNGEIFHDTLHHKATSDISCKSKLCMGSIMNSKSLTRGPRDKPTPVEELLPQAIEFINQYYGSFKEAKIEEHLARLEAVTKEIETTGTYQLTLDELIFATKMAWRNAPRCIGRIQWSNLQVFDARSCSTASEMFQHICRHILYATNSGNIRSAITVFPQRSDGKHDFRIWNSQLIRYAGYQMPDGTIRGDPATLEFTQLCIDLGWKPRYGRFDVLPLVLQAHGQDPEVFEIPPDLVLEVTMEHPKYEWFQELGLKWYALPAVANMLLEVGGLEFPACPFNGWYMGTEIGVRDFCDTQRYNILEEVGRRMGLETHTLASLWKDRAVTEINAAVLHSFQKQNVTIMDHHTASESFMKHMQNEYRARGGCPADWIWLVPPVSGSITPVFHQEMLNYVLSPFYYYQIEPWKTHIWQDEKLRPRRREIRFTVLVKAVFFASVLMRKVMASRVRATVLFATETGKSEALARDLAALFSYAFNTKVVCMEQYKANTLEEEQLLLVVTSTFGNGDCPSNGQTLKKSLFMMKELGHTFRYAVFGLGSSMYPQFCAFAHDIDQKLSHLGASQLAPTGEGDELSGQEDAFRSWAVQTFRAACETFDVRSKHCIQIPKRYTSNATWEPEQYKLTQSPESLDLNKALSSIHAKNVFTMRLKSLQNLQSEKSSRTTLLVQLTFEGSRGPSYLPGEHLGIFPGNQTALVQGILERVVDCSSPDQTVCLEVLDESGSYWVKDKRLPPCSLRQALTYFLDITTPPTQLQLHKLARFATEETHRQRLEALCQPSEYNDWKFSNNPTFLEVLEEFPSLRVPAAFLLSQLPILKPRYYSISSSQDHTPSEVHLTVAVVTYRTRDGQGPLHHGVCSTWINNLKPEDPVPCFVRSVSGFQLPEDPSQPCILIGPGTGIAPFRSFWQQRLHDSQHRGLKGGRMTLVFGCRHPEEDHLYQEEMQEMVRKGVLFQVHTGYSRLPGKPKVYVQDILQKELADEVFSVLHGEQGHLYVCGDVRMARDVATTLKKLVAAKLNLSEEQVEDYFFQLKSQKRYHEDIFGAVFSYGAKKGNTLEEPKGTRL
T1 sequence (P29473 2-1205): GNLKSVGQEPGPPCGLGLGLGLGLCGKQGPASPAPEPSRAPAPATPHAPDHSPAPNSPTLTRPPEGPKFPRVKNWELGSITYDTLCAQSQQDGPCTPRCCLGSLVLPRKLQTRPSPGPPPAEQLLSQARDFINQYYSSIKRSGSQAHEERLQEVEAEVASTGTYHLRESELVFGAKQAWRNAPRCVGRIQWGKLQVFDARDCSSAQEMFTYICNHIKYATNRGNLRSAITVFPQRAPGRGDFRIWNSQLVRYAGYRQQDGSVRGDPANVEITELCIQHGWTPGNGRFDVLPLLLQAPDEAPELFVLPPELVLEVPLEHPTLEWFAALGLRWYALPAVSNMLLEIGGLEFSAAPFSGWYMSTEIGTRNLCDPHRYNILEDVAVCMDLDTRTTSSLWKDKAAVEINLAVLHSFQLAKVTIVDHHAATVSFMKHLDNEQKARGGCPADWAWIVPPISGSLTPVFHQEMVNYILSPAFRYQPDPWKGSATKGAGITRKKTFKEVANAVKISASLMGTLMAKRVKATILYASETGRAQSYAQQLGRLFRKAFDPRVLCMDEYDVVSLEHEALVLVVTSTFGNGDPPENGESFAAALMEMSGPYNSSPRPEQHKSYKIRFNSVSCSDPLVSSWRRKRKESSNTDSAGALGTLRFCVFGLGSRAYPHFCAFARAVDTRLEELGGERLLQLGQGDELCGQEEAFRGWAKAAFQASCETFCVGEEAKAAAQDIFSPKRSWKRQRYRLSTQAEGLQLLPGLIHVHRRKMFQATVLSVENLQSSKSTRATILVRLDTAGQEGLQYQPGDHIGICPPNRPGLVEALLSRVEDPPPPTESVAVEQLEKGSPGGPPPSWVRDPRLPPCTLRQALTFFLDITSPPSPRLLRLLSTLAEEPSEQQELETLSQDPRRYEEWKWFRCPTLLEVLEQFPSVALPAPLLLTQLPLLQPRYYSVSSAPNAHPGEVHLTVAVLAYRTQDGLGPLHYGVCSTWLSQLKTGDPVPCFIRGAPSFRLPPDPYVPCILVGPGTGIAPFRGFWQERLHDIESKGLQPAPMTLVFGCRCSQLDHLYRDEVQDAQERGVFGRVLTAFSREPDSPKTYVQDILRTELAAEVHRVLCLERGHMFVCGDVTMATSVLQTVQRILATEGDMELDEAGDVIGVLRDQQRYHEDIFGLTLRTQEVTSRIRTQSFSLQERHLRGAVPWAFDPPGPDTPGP

| Structure (SMILES) | IC50 [1, 3] | IC50 [2, 4] | also measured |
| --- | --- | --- | --- |
| CCN=C(N)Nc1cccc(CN)c1Cl.Cl.Cl [Example 538, N-(2-chloro-3-(N′-ethylguanidino)phenylmethyl)amine dihydrochloride] | 306 nM | 2540 nM | Ratio of IC50 values E-cNOS/iNOS [1]: 8.3; selectivity for iNOS compared to E-cNOS, compared with the existing NOS inhibitors (L-NIO) [1]: more selective inhibitory effect on iNOS than L-NIO |
| CCSC(N)=NCCC[C@H](N)C(=O)O [L-EIN, S-ethyl-L-thiocitrulline, reference compound] | 6760 nM | 732 nM |  |
| CN(C)Cc1cccc(NC(N)=N[N+](=O)[O-])c1 [Example 39, N-(3-(N′-nitroguanidino)phenylmethyl)dimethylamine acetate] | 22900 nM |  |  |
| CCSC(=N)Nc1cccc(CN)c1C.Cl.Cl [Example 131, N-(3-(S-ethylisothioureido)-2-methylphenylmethyl)amine dihydrochloride] | 78.2 nM | 481 nM | Ratio of IC50 values E-cNOS/iNOS [1]: 6.2; selectivity for iNOS compared to E-cNOS, compared with the existing NOS inhibitors (L-NIO) [1]: more selective inhibitory effect on iNOS than L-NIO; iNOS inhibitory potency compared with the existing NOS inhibitors (L-MIN) [1, 5]: more potent in inhibiting iNOS than L-MIN |
| CCC(N)c1cccc(NC(N)=N[N+](=O)[O-])c1 (stereo not shown) [Example 21, N-(1-(3-(N′-nitroguanidino)phenyl)propyl)amine hydrochloride] | 2610 nM |  |  |
| CCSC(=N)Nc1cccc(CN)c1.Cl.Cl [Example 28, N-(3-(S-ethylisothioureido)phenylmethyl)amine dihydrochloride] | 32.7 nM |  | iNOS inhibitory potency compared with the existing NOS inhibitors (L-MIN) [1, 5]: more potent in inhibiting iNOS than L-MIN |
| CCSC(=N)Nc1ccc(NC)c(CN)c1.Cl.Cl.Cl [Example 452, N-(5-(S-ethylisothioureido)-2-methylaminophenylmethyl)amine trihydrochloride] | 6960 nM | 3630 nM | Ratio of IC50 values E-cNOS/iNOS [1]: 0.5 |
| CSC(=N)Nc1cccc(CN)c1.Cl.Cl [Example 26, N-(3-(S-methylisothioureido)phenylmethyl)amine dihydrochloride] | 1350 nM | 431 nM | Ratio of IC50 values E-cNOS/iNOS ([1]; index of selectivity): 0.3 |
| CCOc1ccc(NC(=N)SCC)cc1CN.Cl.Cl [Example 324, N-(2-ethoxy-5-(S-ethylisothioureido)phenylmethyl) amine dihydrochloride] | 8730 nM | 2310 nM | Ratio of IC50 values E-cNOS/iNOS ([1]; index of selectivity): 0.3 |
| CSC(=N)Nc1cccc(CCN)c1 [Example 60, N-(3-(S-methylisothioureido)phenylethyl)amine dihydrochloride] | 6750 nM |  |  |
| CCSC(=N)Nc1ccc(OC)c(C(C)(C)N)c1 [Example 350, N-(1-(5-(S-ethylisothioureido)-2-methoxyphenyl)-1-methylethyl)amine] | 58400 nM | 15800 nM | Ratio of IC50 values E-cNOS/iNOS ([1]; index of selectivity): 0.3 |
| CSC(=N)Nc1cccc(C(C)(C)N)c1.Cl.Cl [Example 5, N-(1-methyl-1-(3-(S-methylisothioureido)phenyl)ethyl)amine dihydrochloride] | 449 nM | 429 nM | Ratio of IC50 values E-cNOS/iNOS ([1]; index of selectivity): 1.0 |
| CC(C)(N)c1cccc(NC(N)=N[N+](=O)[O-])c1.Cl [Example 7, N-(1-methyl-1-(3-(N′-nitroguanidino)phenyl)ethyl)amine hydrochloride] | 2120 nM | 42.4 nM | Ratio of IC50 values E-cNOS/iNOS [1]: 0.02 |
| N/N=C(\N)NCCC[C@H](N)C(=O)O [L-AA, N^G-amino-L-arginine, reference compound] |  |  | IC50 [1]: 1280 nM; IC50 [2]: 167 nM |
| CCN=C(N)Nc1ccc(N(C)C)c(CN)c1.Cl.Cl.Cl [Example 267, N-(2-dimethylamino-5-(N′-ethylguanidino)phenylmethyl)amine trihydrochloride] | 4790 nM | 50100 nM | selectivity for iNOS compared to E-cNOS, compared with the existing NOS inhibitors (L-NIO) [1, 5]: more selective inhibitory effect on iNOS than L-NIO; Ratio of IC50 values E-cNOS/iNOS ([1]; index of selectivity): 10.5 |
| CC(=N)NCCC[C@H](N)C(=O)O [L-NIO, NG-iminoethyl-L-ornithine, reference compound] |  |  | IC50 [1, 6]: 458 nM; IC50 [2, 7]: 1230 nM |

| Structure (SMILES) | IC50 [1, 3] | IC50 [2, 4] | also measured |
| --- | --- | --- | --- |
| CNC(=N)NCCC[C@H](N)C(=O)O [L-NMMA, N^G-monomethyl-L-arginine, reference compound] |  |  | IC50 ([1]; read-out: IC50 value, iNOS (Type 2)): 3480 nM |
| N=C(Nc1ccc(CCN)cc1)N[N+](=O)[O-] [Example 54, N-(4-(N′-nitroguanidino)phenylethyl)amine] | 5020 nM |  |  |
| CCSC(=N)Nc1ccc(OCc2ccccc2)c(CN)c1.Cl.Cl [Example 337, N-(2-benzyloxy-5-(S-ethylisothioureido)phenylmethyl)amine dihydrochloride] |  | 5200 nM | Ratio of IC50 values E-cNOS/iNOS ([1]; index of selectivity): 0.3 |
| CCSC(=N)Nc1ccc(OC)c(CN)c1 [Example 122, N-(5-(S-ethylisothioureido)-2-methoxyphenylmethyl)amine dihydrochloride] | 24600 nM | 3530 nM |  |
| N=C(Nc1cccc(CN)c1)N[N+](=O)[O-] [Example 34, N-(3-(N′-nitroguanidino)phenylmethyl)amine] |  |  | IC50 [1, 6]: 6760 nM |
| CCSC(=N)Nc1ccc(N(C)C)c(CN)c1.Cl.Cl.Cl [Example 270, N-(2-dimethylamino-5-(S-ethylisothioureido)phenylmethyl)amine trihydrochloride] | 4530 nM | 3590 nM | Ratio of IC50 values E-cNOS/iNOS ([1]; index of selectivity): 0.8 |
| CC(N)c1cccc(NC(N)=N[N+](=O)[O-])c1 (stereo not shown) [Example 14, N-(1-(3-(N′-nitroguanidino)phenyl)ethyl)amine hydrochloride] | 3680 nM |  |  |
| CSC(=N)Nc1ccc(CCN)cc1.Cl.Cl [Example 52, N-(4-(S-methylisothioureido)phenylethyl)amine dihydrochloride] | 2760 nM | 483 nM | Ratio of IC50 values E-cNOS/iNOS ([1]; index of selectivity): 0.2 |
| CCSC(=N)Nc1cccc(C2(N)CC2)c1 [Example 167, N-(1-(3-(S-ethylisothioureido)phenyl)cyclopropyl)amine dihydrochloride] |  | 366 nM |  |
| CCSC(=N)Nc1cccc(C(N)CC)c1 (stereo not shown) [Example 177, N-(1-(3-(S-ethylisothioureido)phenyl)propyl)amine dihydrochloride] |  | 510 nM |  |
| CCSC(=N)Nc1ccc(CCN)cc1.Cl.Cl [Example 104, N-(4-(S-ethylisothioureido)phenylethyl)amine dihydrochloride] | 86.5 nM | 118 nM | iNOS inhibitory potency compared with the existing NOS inhibitors (L-MIN) [1, 5]: more potent in inhibiting iNOS than L-MIN; Ratio of IC50 values E-cNOS/iNOS ([1]; index of selectivity): 1.4 |
| CCSC(=N)Nc1ccc(C(C)(C)CN)cc1 [Example 185, N-(2-(4-(S-ethylisothioureido)phenyl)-2-methylpropyl)amine dihydrochloride] |  |  | IC50 [2, 7]: 3170 nM |
| CCC(N)c1cccc(NC(=N)SC)c1 (stereo not shown) [Example 19, N-(1-(3-(S-methylisothioureido)phenyl)propyl)amine dihydrochloride] | 2400 nM |  |  |
| CSC(=N)Nc1cccc(C(C)N)c1.Cl.Cl (stereo not shown) [Example 12, N-(1-(3-(S-methylisothioureido)phenyl)ethyl)amine dihydrochloride] | 239 nM | 538 nM | Ratio of IC50 values E-cNOS/iNOS [1]: 2.3; iNOS inhibitory potency compared with the existing NOS inhibitors (L-MIN) [1, 5]: more potent in inhibiting iNOS than L-MIN |
| CCSC(=N)Nc1cccc(CNC)c1C [Example 411, N-(3-(S-ethylisothioureido)-2-methylphenylmethyl)methylamine dihydrochloride] |  | 341 nM |  |
| CCNc1ccc(NC(=N)SCC)cc1CN(C(=O)OC(C)(C)C)C(=O)OC(C)(C)C [Example 458, N-(2-ethylamino-5-(S-ethylisothioureido)phenylmethyl)iminodicarboxylic acid di-t-butyl ester] |  | 4100 nM |  |
